Experimental data as given in paper PMC12655637, “Design, Synthesis, and Mechanistic Study of Novel Ciprofloxacin/Thiazole Chalcone Hybrids as Potential Anticancer Agents” (Pharmaceuticals, 2025).
pIC50: −log10 of the molar value.

Columns and labels:
U251 = assay: NCI-60 screening, one-dose (10 µM) and five-dose, SRB; assay type: cell-based, human; conditions: five-dose; U251
MALME-3M = assay: as above; assay type: cell-based, human
SK-MEL-28 = assay: as above; assay type: cell-based, human
UACC-257 = assay: as above; assay type: cell-based, human
UACC-62 = assay: as above; assay type: cell-based
IGROV1 = assay: as above; assay type: cell-based, human
OVCAR-3 = assay: as above; assay type: cell-based
OVCAR-4 = assay: as above; assay type: cell-based, human
OVCAR-5 = assay: as above; assay type: cell-based, human; conditions: five-dose, OVCAR-5
SK-OV-3 = assay: as above; assay type: cell-based, human
ACHN = assay: as above; assay type: cell-based, human
DU-145 = assay: as above; assay type: cell-based, human
MCF7 = assay: as above; assay type: cell-based, human
HS 578T = assay: as above; assay type: cell-based, human
T-47D = assay: as above; assay type: cell-based, human; conditions: five-dose
[1] = tested on: 60 human cancer cell lines; assay: NCI-60 screening, full panel (mean growth, MID a, ranges over all lines)
Experimental: The screening was performed in accordance with the protocols set forth by the Drug Evaluation Department of the National Cancer Institute (NCI), Bethesda, USA, for in vitro anticancer efficacy at a single concentration of 10 µM against a panel of 60 cancer cell lines derived from nine distinct organs (https://dctd.cancer.gov/data-tools-biospecimens/data (accessed on 15 March 2023 and 6 January 2024)) [37].
The log10 GI50, log10 TGI, and log10 LC50 values were subsequently calculated as the averages of the log10 values of the respective individual GI50, TGI, and LC50 measurements. Negative numbers signified the most sensitive cell lines.
One way to measure a compound’s selectivity is to divide its subpanel MID^b (in μM) by the MID^a (in μM), which is the average sensitivity of all cell lines to the test agent.
At the National Cancer Institute (NCI) in Bethesda, USA, researchers examined the anticancer potential of the target compounds under investigation using nine panels of sixty different cell lines obtained from nine different cancers that were housed in the NCI library. Following the protocols laid out by the National Cancer Institute (https://dctd.cancer.gov/data-tools-biospecimens/data (accessed on 15 March 2023 and 6 January 2024)), the screening procedures were carried out [37]. The anticancer screening was carried out at a single dose of 10^−5 M; the results obtained were expressed as growth inhibition (%).
The anti-cancer potential of the tested compounds was evaluated at the National cancer institute (NCI), Bethesda, USA, against 9 panels of 60 various cell lines derived from nine human tumours available usually at NCI library. The procedures for the screening were described in details in NCI website (dttp://www.dtp.nci.nih.gov.) and were done according to NCI protocols. The anticancer screening was carried out at single dose of 10^-5 M. The results obtained as growth inhibition (%).
Cell lines were grown in Roswell Park Memorial Institute medium (RPMI) with 5% fetal bovine serum and 2% μM L-glutamine. Cancer cells are inoculated into 96 well microtiter plates in 100 μL at plating densities ranging from 5000 to 40,000 cells/well depending on the doubling time of individual cell lines. Then microtiter plates are incubated at 37 °C, 5% CO2, 95% air and 100% relative humidity for 24 h prior to the addition of the tested compounds. After 24 h, two plates of each cell line are fixed in situ with trichloroacetic acid (TCA). The tested compounds were dissolved in dimethyl sulfoxide (DMSO) and stored in the freezer prior to use. An aliquot of frozen drug concentrate is diluted to the desired concentration with complete medium containing 50 μg/mL gentamicin.

[2] = Homo sapiens, five-dose, read-out: LC50 (the source's name)
[3] = Homo sapiens, five-dose, SK-MEL-28
[4] = Homo sapiens, five-dose, UACC-257
[5] = Homo sapiens, five-dose, UACC-62
[6] = Homo sapiens, IGROV-1, five-dose, IGROV1
[7] = Homo sapiens, five-dose, OVCAR-3
[8] = Homo sapiens, five-dose, OVCAR-4
[9] = Homo sapiens, five-dose, SK-OV-3
[10] = Homo sapiens, five-dose, DU-145

Cc1nc(SCC(=O)N2CCN(c3cc4c(cc3F)c(=O)c(C(=O)O)cn4C3CC3)CC2)sc1C(=O)/C=C/c1cccc(F)c1 [Compound 4d, (E)-1-Cyclopropyl-6-fluoro-7-(4-(2-((5-(3-(3-fluorophenyl)acryloyl)-4-methylthiazol-2-yl)thio)acetyl)piperazin-1-yl)-4-oxo-1,4-dihydroquinoline-3-carboxylic Acid]
TGI (U251): 100.0 µM | Growth percentage (MALME-3M; 10 μM, Melanoma): 106.8% | GI50 (MALME-3M; Homo sapiens, five-dose): > 100 µM | pIC50 (MALME-3M; Homo sapiens, five-dose): < 4.00 | CC50 (MALME-3M; [2]): > 100 µM | TGI (MALME-3M; five-dose): 100.0 µM | activity at 10 µM (SK-MEL-28; Homo sapiens, 10 μM, SK-MEL-28, Melanoma, read-out: Growth percentage): 77.5% | GI50 (SK-MEL-28; [3]): > 100 µM | pIC50 (SK-MEL-28; [3]): < 4.00 | CC50 (SK-MEL-28; Homo sapiens, five-dose, SK-MEL-28, read-out: LC50 (the source's name)): > 100 µM | TGI (SK-MEL-28; five-dose, SK-MEL-28): 100.0 µM | activity at 10 µM (UACC-257; Homo sapiens, 10 μM, UACC-257, Melanoma, read-out: Growth percentage): 53.9% | GI50 (UACC-257; [4]): 46.8 µM | pIC50 (UACC-257; [4]): < 4.00 | CC50 (UACC-257; Homo sapiens, five-dose, UACC-257, read-out: LC50 (the source's name)): > 100 µM | TGI (UACC-257; five-dose, UACC-257): 100.0 µM | activity at 10 µM (UACC-62; Homo sapiens, 10 μM, UACC-62, Melanoma, read-out: Growth percentage): 33.1% | GI50 (UACC-62; [5]): 25.7 µM | pIC50 (UACC-62; [5]): < 4.00 | CC50 (UACC-62; Homo sapiens, five-dose, UACC-62, read-out: LC50 (the source's name)): > 100 µM | TGI (UACC-62; five-dose, UACC-62): 100.0 µM | Growth percentage (IGROV1; 10 μM, IGROV1, Ovarian Cancer): 44.6% | GI50 (IGROV1; [6]): > 100 µM | pIC50 (IGROV1; [6]): < 4.00 | CC50 (IGROV1; Homo sapiens, IGROV-1, five-dose, IGROV1, read-out: LC50 (the source's name)): > 100 µM | TGI (IGROV1; five-dose, IGROV1): 100.0 µM | activity at 10 µM (OVCAR-3; Homo sapiens, 10 μM, OVCAR-3, Ovarian Cancer, read-out: Growth percentage): -10.9% | GI50 (OVCAR-3; [7]): 13.5 µM | pIC50 (OVCAR-3; [7]): < 4.00 | CC50 (OVCAR-3; Homo sapiens, five-dose, OVCAR-3, read-out: LC50 (the source's name)): > 100 µM | TGI (OVCAR-3; five-dose, OVCAR-3): 100.0 µM | activity at 10 µM (OVCAR-4; Homo sapiens, 10 μM, OVCAR-4, Ovarian Cancer, read-out: Growth percentage): 94.5% | GI50 (OVCAR-4; [8]): > 100 µM | pIC50 (OVCAR-4; [8]): < 4.00 | CC50 (OVCAR-4; Homo sapiens, five-dose, OVCAR-4, read-out: LC50 (the source's name)): > 100 µM | TGI (OVCAR-4; five-dose, OVCAR-4): 100.0 µM | GI50 (OVCAR-5; Homo sapiens): > 100 µM | pIC50 (OVCAR-5; Homo sapiens): < 4.00 | CC50 (OVCAR-5; Homo sapiens, read-out: LC50 (the source's name)): > 100 µM | TGI (OVCAR-5): 100.0 µM | activity at 10 µM (SK-OV-3; Homo sapiens, 10 μM, SK-OV-3, Ovarian Cancer, read-out: Growth percentage): 5% | GI50 (SK-OV-3; [9]): > 100 µM | pIC50 (SK-OV-3; [9]): < 4.00 | CC50 (SK-OV-3; Homo sapiens, five-dose, SK-OV-3, read-out: LC50 (the source's name)): > 100 µM | TGI (SK-OV-3; five-dose, SK-OV-3): 100.0 µM | activity at 10 µM (ACHN; Homo sapiens, 10 μM, Renal Cancer, read-out: Growth percentage): 94.4% | GI50 (ACHN; Homo sapiens, five-dose): > 100 µM | pIC50 (ACHN; Homo sapiens, five-dose): < 4.00 | CC50 (ACHN; [2]): > 100 µM | TGI (ACHN; five-dose): 100.0 µM | activity at 10 µM (DU-145; Homo sapiens, 10 μM, DU-145, Prostate Cancer, read-out: Growth percentage): 73.7% | GI50 (DU-145; [10]): > 100 µM | pIC50 (DU-145; [10]): < 4.00 | CC50 (DU-145; Homo sapiens, five-dose, DU-145, read-out: LC50 (the source's name)): > 100 µM | TGI (DU-145; five-dose, DU-145): 100.0 µM | activity at 10 µM (MCF7; Homo sapiens, MCF7, 10 μM, MCF7, Breast Cancer, read-out: Growth percentage): -57.6% | GI50 (MCF7; Homo sapiens, five-dose, MCF7): 0.49 µM | pIC50 (MCF7; Homo sapiens, five-dose, MCF7): 6.16 | CC50 (MCF7; Homo sapiens, five-dose, MCF7, read-out: LC50 (the source's name)): > 100 µM | TGI (MCF7; five-dose, MCF7): 100.0 µM | activity at 10 µM (HS 578T; Homo sapiens, 10 μM, Breast Cancer, read-out: Growth percentage): 36.2% | GI50 (HS 578T; Homo sapiens, five-dose): > 100 µM | pIC50 (HS 578T; Homo sapiens, five-dose): < 4.00 | CC50 (HS 578T; [2]): > 100 µM | TGI (HS 578T; five-dose): 28.2 µM | GI50 (T-47D; Homo sapiens, T47D): > 100 µM | pIC50 (T-47D; Homo sapiens, T47D): < 4.00 | CC50 (T-47D; Homo sapiens, T47D, read-out: LC50 (the source's name)): > 100 µM | TGI (T-47D): 77.6 µM | CC50 ([1]; Homo sapiens, read-out: LC50): 0.6 to 100 µM | activity at 10 µM ([1]; Homo sapiens, read-out: Mean growth percentage): 20.2% | Full-panel MG-MID ([1]; mean sensitivity across all cell lines in the panel): 70.2 µM
